Source: US4552879A, “Benzoheterocyclic compounds and pharmaceutical composition thereof” (Otsuka Pharmaceutical Co., Ltd., priority 1980, dated 1985)
Values after ≈ are worked out from the molar mass of the structure shown. Like-named read-outs stand apart in the source and are kept apart here.

What was measured:
Assay in all cases: Minimum inhibitory concentration, serial dilution method on agar plate
Format in all cases: cell-based
[1] = test system: Streptococcus pyogenes IID S-23; conditions: Streptococcus pyogenes, read-out: Minimum Inhibitory Concentration
[2] = test system: Pseudomonas aeruginosa E-2; conditions: Pseudomonas aeruginosa, read-out: Minimum Inhibitory Concentration
[3] = test system: Salmonella typhi 0-901 (NCTC 8393); conditions: Salmonella enterica
[4] = test system: Klebsiella pneumoniae
[5] = test system: Proteus rettgeri NIH 96; conditions: Providencia rettgeri
[6] = test system: Escherichia Coli NIHJ JC-2 (IFO 12734)
[7] = test system: Serratia marcescens IFO 12648; conditions: read-out: Minimum Inhibitory Concentration
[8] = test system: Shigella sonnei EW 33
Procedure: The antimicrobial activity of the following test compounds on various test organisms listed below was determined by the serial dilution method on agar plate (Heart Infusion agar produced by Difco Co.) (see CHEMOTHERAPY 22, pp. 1126-1128 (1974)), and the minimum inhibitory concentrations (mcg/ml) obtained are shown in Tables 1, 2 and 3 below.
A sample of each test organism was prepared so that the population of the organism was 1×10^8 cells/ml (O.D. 660 mμ=0.07 to 0.16) and 1×10^6 cells/ml (which was obtained by diluting 100 fold the above 1×10^8 cells/ml preparation).

[9] = test system: Pseudomonas putida 12996; conditions: read-out: Minimum Inhibitory Concentration
[10] = test system: Staphylococcus aureus FDA 209 P; conditions: Staphylococcus aureus, read-out: Minimum Inhibitory Concentration
[11] = test system: Pseudomonas aeruginosa ATCC 10145; conditions: Pseudomonas aeruginosa, read-out: Minimum Inhibitory Concentration
[12] = read-out: Minimum Inhibitory Concentration, 1×10^6 cells/ml
[13] = read-out: Minimum Inhibitory Concentration, 1×10^8 cells/ml
[14] = NIH96, 1×10^6 cells/ml, read-out: Minimum Inhibitory Concentration
[15] = NIH96, read-out: Minimum Inhibitory Concentration, 1×10^8 cells/ml
[16] = Pseudomonas putida, 12996, 1×10^6 cells/ml
[17] = Pseudomonas putida, 12996, 1×10^8 cells/ml
[18] = 1×10^6 cells/ml, read-out: Minimum Inhibitory Concentration
[19] = 1×10^8 cells/ml, read-out: Minimum Inhibitory Concentration
[20] = NIH96, read-out: Minimum Inhibitory Concentration, 1×10^6 cells/ml
[21] = NIH96, 1×10^8 cells/ml, read-out: Minimum Inhibitory Concentration

Row | Structure (SMILES) | MIC ([1]; IIDS23, 1×10^6 cells/ml) | MIC ([1]; IIDS23, 1×10^8 cells/ml) | MIC ([2]; E2, 1×10^6 cells/ml) | MIC ([2]; E2, 1×10^8 cells/ml) | MIC [3, 12] | MIC [3, 13] | MIC [4, 12] | MIC [4, 13] | MIC [5, 14] | MIC [5, 15] | MIC ([7]; IFO12648, 1×10^6 cells/ml) | MIC ([7]; IFO12648, 1×10^8 cells/ml) | MIC ([8]; EW33, 1×10^6 cells/ml) | MIC ([8]; EW33, 1×10^8 cells/ml) | MIC [9, 16] | MIC [9, 17] | MIC ([10]; FDA209, 1×10^6 cells/ml) | MIC ([10]; FDA209, 1×10^8 cells/ml) | MIC ([11]; ATCC10145, 1×10^6 cells/ml) | MIC ([11]; ATCC10145, 1×10^8 cells/ml) | other results
1 | CC1CCc2c(N3CCOCC3)c(F)cc3c(=O)c(C(=O)O)cn1c23 (stereo not shown) [Compound 2, 9-Fluoro-8-morpholino-5-methyl-6,7-dihydro-1-oxo-1H,5H-benzo[ij]quinolizine-2-carboxylic acid] | 0.78 µg/mL (≈ 2.25 µM) | 0.78 µg/mL (≈ 2.25 µM) | 3.13 µg/mL (≈ 9.04 µM) | 6.25 µg/mL (≈ 18 µM) | 0.05 µg/mL (≈ 0.144 µM) | 0.1 µg/mL (≈ 0.289 µM) | 0.2 µg/mL (≈ 0.577 µM) | 0.2 µg/mL (≈ 0.577 µM) | 0.05 µg/mL (≈ 0.144 µM) | 0.1 µg/mL (≈ 0.289 µM) | 0.39 µg/mL (≈ 1.13 µM) | 0.78 µg/mL (≈ 2.25 µM) | 0.1 µg/mL (≈ 0.289 µM) | 0.1 µg/mL (≈ 0.289 µM) | 3.13 µg/mL (≈ 9.04 µM) | 6.25 µg/mL (≈ 18 µM) | 0.025 µg/mL (≈ 0.0722 µM) | 0.05 µg/mL (≈ 0.144 µM) | 3.13 µg/mL (≈ 9.04 µM) | 3.13 µg/mL (≈ 9.04 µM) | MIC [6, 12]: 0.1 µg/mL (≈ 0.289 µM); MIC [6, 13]: 0.2 µg/mL (≈ 0.577 µM)
2 | CC(=O)OC1CCN(c2c(F)cc3c(=O)c(C(=O)O)cn4c3c2CCC4C)CC1 (stereo not shown) [Compound 3, 9-Fluoro-8-(4-acetyloxy-1-piperidyl)-5-methyl-6,7-dihydro-1-oxo-1H,5H-benzo[ij]quinolizine-2-carboxylic acid] | 0.78 µg/mL (≈ 1.94 µM) | 0.78 µg/mL (≈ 1.94 µM) | 6.25 µg/mL (≈ 15.5 µM) | 6.25 µg/mL (≈ 15.5 µM) | 0.1 µg/mL (≈ 0.248 µM) | 0.1 µg/mL (≈ 0.248 µM) | – | – | – | 0.2 µg/mL (≈ 0.497 µM) | 1.56 µg/mL (≈ 3.88 µM) | 3.13 µg/mL (≈ 7.78 µM) | 0.2 µg/mL (≈ 0.497 µM) | 0.2 µg/mL (≈ 0.497 µM) | 6.25 µg/mL (≈ 15.5 µM) | 6.25 µg/mL (≈ 15.5 µM) | 0.05 µg/mL (≈ 0.124 µM) | 0.05 µg/mL (≈ 0.124 µM) | 3.13 µg/mL (≈ 7.78 µM) | 6.25 µg/mL (≈ 15.5 µM) | MIC [4, 18]: 0.39 µg/mL (≈ 0.969 µM); MIC [4, 19]: 0.39 µg/mL (≈ 0.969 µM); MIC [5, 20]: 0.2 µg/mL (≈ 0.497 µM); MIC [6, 18]: 0.39 µg/mL (≈ 0.969 µM); MIC [6, 19]: 0.39 µg/mL (≈ 0.969 µM)
3 | CC1CCc2c(N3CCCCC3)c(F)cc3c(=O)c(C(=O)O)cn1c23 (stereo not shown) [Compound 4, 9-Fluoro-8-(1-piperidyl)-5-methyl-6,7-dihydro-1-oxo-1H,5H-benzo[ij]quinolizine-2-carboxylic acid] | 0.78 µg/mL (≈ 2.26 µM) | 1.56 µg/mL (≈ 4.53 µM) | 12.5 µg/mL (≈ 36.3 µM) | 25 µg/mL (≈ 72.6 µM) | 0.39 µg/mL (≈ 1.13 µM) | 0.39 µg/mL (≈ 1.13 µM) | – | – | 1.56 µg/mL (≈ 4.53 µM) | – | 6.25 µg/mL (≈ 18.1 µM) | 12.5 µg/mL (≈ 36.3 µM) | 0.78 µg/mL (≈ 2.26 µM) | 0.78 µg/mL (≈ 2.26 µM) | 25 µg/mL (≈ 72.6 µM) | 25 µg/mL (≈ 72.6 µM) | 0.05 µg/mL (≈ 0.145 µM) | 0.05 µg/mL (≈ 0.145 µM) | 12.5 µg/mL (≈ 36.3 µM) | 12.5 µg/mL (≈ 36.3 µM) | MIC [4, 18]: 1.56 µg/mL (≈ 4.53 µM); MIC [4, 19]: 1.56 µg/mL (≈ 4.53 µM); MIC [5, 21]: 1.56 µg/mL (≈ 4.53 µM); MIC [6, 18]: 1.56 µg/mL (≈ 4.53 µM); MIC [6, 19]: 1.56 µg/mL (≈ 4.53 µM)
4 | CC1CCc2c(N3CCC(N(C)C)CC3)c(F)cc3c(=O)c(C(=O)O)cn1c23 (stereo not shown) [Compound 5, 9-Fluoro-8-(4-dimethylamino-1-piperidyl)-5-methyl-6,7-dihydro-1-oxo-1H,5H-benzo[ij]quinolizine-2-carboxylic acid] | 0.39 µg/mL (≈ 1.01 µM) | 0.78 µg/mL (≈ 2.01 µM) | 6.25 µg/mL (≈ 16.1 µM) | 6.25 µg/mL (≈ 16.1 µM) | 0.2 µg/mL (≈ 0.516 µM) | 0.2 µg/mL (≈ 0.516 µM) | 0.1 µg/mL (≈ 0.258 µM) | 0.2 µg/mL (≈ 0.516 µM) | – | – | 0.78 µg/mL (≈ 2.01 µM) | 1.56 µg/mL (≈ 4.03 µM) | 0.2 µg/mL (≈ 0.516 µM) | 0.2 µg/mL (≈ 0.516 µM) | 6.25 µg/mL (≈ 16.1 µM) | 6.25 µg/mL (≈ 16.1 µM) | 0.05 µg/mL (≈ 0.129 µM) | 0.05 µg/mL (≈ 0.129 µM) | 3.13 µg/mL (≈ 8.08 µM) | 6.25 µg/mL (≈ 16.1 µM) | MIC [5, 21]: 0.39 µg/mL (≈ 1.01 µM); MIC [5, 20]: 0.2 µg/mL (≈ 0.516 µM); MIC [6, 12]: 0.2 µg/mL (≈ 0.516 µM); MIC [6, 13]: 0.2 µg/mL (≈ 0.516 µM)
